One block for each compound: values may come before it.
Tests used:
[1] = cited from earlier work
[2] = Freeze/thaw stability of MB-102 in plasma samples (three cycles, −80° C. to room temperature), HPLC with fluorescence detection; type: physicochemical, human; settings: for % Recovered / Mean Concentration: 3 Freeze/Thaw cycles
Protocol: (§1) For sample preparation by direct dilution, calibration standards containing 0.4, 1.0, 2.0, 4.0, 10.0, 16.0, 40.0, 100.0, 200.0, 400.0 ng/mL and quality controls at low, mid, and high level of MB-102 were prepared in 1% human plasma in PBS on the day of the validation study or sample analysis. The MB-102 dosing solution (18.6 mg/mL) used in the clinical study was diluted 1/100 first with 1% human plasma in PBS to form a stock solution of 186 μg/mL MB-102. This stock solution is diluted further with 1% human plasma in PBS to form a calibration standard working stock of 2000 ng/mL MB-102 for preparation of calibration standards. A QC working stock at (300 ng/mL) was also prepared from the 186 μg/mL MB-102 stock by dilution with 1% plasma in PBS. The low, mid, and high levels of quality controls were prepared from this QC working stock by dilution with 1% human plasma in PBS.
(§2) For the samples being analyzed by direct dilution, 10 μL of plasma sample (thawed to room temperature and mixed thoroughly) was diluted with 990 μL 1×PBS, mixed thoroughly for about 10 minutes, and centrifuged at 1000 rpm for 2 minutes. It was directly analyzed by HPLC.
(§3) Analyses were performed on a Waters Acquity UPLC H Class Chromatography System, equipped with column heater, sample heater/cooler, vacuum degasser, autosampler, fluorescence detector, and pump capable of delivering a binary gradient. An HPLC analytical column, Phenomenex Luna C18 (2), 4.6×250 mm, 5 μm, 100 Å (Phenomenex, Cat. No. 00G-4252-E0, S/N H15-133556), and a Security Guard Cartridge C18, 4×3 mm ID, 5 μm (Phenomenex, Cat. No. KJ0-4282) were used for the analysis. The Waters Empower 3 software equipped with the UPLC system was used for assay setup, analysis monitoring, and data processing. Two mobile phases, Mobile Phase A: 0.1% Trifluoroacetic acid in water (Fisher, Optima® Grade) and Mobile Phase B: 0.1% Trifluoroacetic acid in acetonitrile (Fisher Scientific, Optima® Grade) were used. The column temperature was set at 30° C., the autosampler temperature was set at 5° C., the excitation wavelength was set at 434 nm and the detection/emission wavelength was set at 556 nm. The counting rate was set at 5 point/sec; the PMT gain was set at 50; the flow cell temperature was ambient; the injection volume was 10 μL. MB-102 elutes at about 3.6 minutes using the gradient shown.
(§4) Using this HPLC method and sample preparation described herein, a validation study was carried out to determine the precision, accuracy, linearity, reproducibility, plasma and sample solution stability, freeze-thaw stability, lowest limits of quantitation, and specificity. The acceptance criterion was ±15% data deviation from normal values excepted at the lowest limit of quantitation (LLOQ) where it was set at ±20%. Samples were analyzed both in-house and at a GMP contract lab to ensure both the validity of the method and accuracy of the results.
(§5) MB-102 stability during sample handling upon long term storage of plasma samples (frozen at −80° C.) and short-term storage (bench top ambient temperature with/without light exposure, and 2-8° C.) of plasma solution was evaluated. Plasma samples were tested for three freeze/thaw cycles (−80° C. to room temperature). The stability of MB-102 in plasma solution at room temperature with/without light exposure, at 2-8° C., and at auto-sampler temperature (5° C.) was evaluated for time intervals of 24 and 48 hours.

[3] = Short-term stability of MB-102 in plasma solution (1% plasma/PBS) at 4° C. or room temperature with/without light, HPLC with fluorescence detection; type: physicochemical, human
Protocol: as §1, §2, §3, §4, §5

[4] = Pharmacokinetic analysis of MB-102 in plasma of clinical study participants, iohexol co-dosed as reference marker; type: in vivo, human
Protocol: as §2
as §3, with “The column temperature was set at 30° C., the autosampler temperature was set at 5° C., the excitation wavelength was set at 434 nm and the detection/emission wavelength was set at 556 nm. The counting rate was set at 5 point/sec; the PMT gain was set at 50; the flow cell temperature was ambient; the injection volume was 10 μL. MB-102 elutes at about 3.6 minutes using the gradient shown.” left out
In support of the clinical studies to evaluate the utility of MB-102 for kidney function monitoring via transdermal fluorescence sensing, the plasma samples were prepared from blood samples collected at 0, 5, 10, 15, 30, 60, 90, 120, 180, 240, 300, 360, 480, 600, and 720 minutes of each study participant. […]

[5] = QCs stored at 4° C. for 48 hours, MB-102 3.7 ng/mL
[6] = QCs stored at 4° C. for 48 hours, MB-102 37.9 ng/mL
[7] = QCs stored at 4° C. for 48 hours, MB-102 372.6 ng/mL
[8] = QCs stored at RT with light, MB-102 3.7 ng/mL
[9] = QCs stored at RT with light, MB-102 37.9 ng/mL
[10] = QCs stored at RT with light, MB-102 372.6 ng/mL
[11] = QCs stored at RT without light, MB-102 3.7 ng/mL
[12] = QCs stored at RT without light, MB-102 37.9 ng/mL
[13] = QCs stored at RT without light, MB-102 372.6 ng/mL
[14] = Sample solution at 4° C. for 48 hours, MB-102 1.76 ng/mL
[15] = Sample solution at 4° C. for 48 hours, MB-102 8.81 ng/mL
[16] = Sample solution at 4° C. for 48 hours, MB-102 61.87 ng/mL

SMILES: CC(=O)N(CC(O)CO)c1c(I)c(C(=O)NCC(O)CO)c(I)c(C(=O)NCC(O)CO)c1I (centres unmarked) [Iohexol, iohexol]
metabolism ([1]; patient): not metabolized | route of elimination ([1]; without tubular renal secretion or reabsorption): entirely eliminated by simple glomerular filtration

% Recovered ([2]; MB-102 1.76 ng/mL): 101.7% | Mean Concentration ([2]; MB-102 1.76 ng/mL): 0.00179 µg/mL | % Recovered ([2]; MB-102 8.81 ng/mL): 100.0% | Mean Concentration ([2]; MB-102 8.81 ng/mL): 0.00881 µg/mL | % Recovered ([2]; MB-102 61.87 ng/mL): 100.8% | Mean Concentration ([2]; MB-102 61.87 ng/mL): 0.06234 µg/mL | stability over freeze/thaw cycles ([2]; three freeze/thaw cycles, plasma at −80° C.): very stable | % Recovered [3, 5]: 101.1% | Mean Concentration [3, 5]: 0.00374 µg/mL | % Recovered [3, 6]: 99.1% | Mean Concentration [3, 6]: 0.03755 µg/mL | % Recovered [3, 7]: 100.2% | Mean Concentration [3, 7]: 0.3735 µg/mL | % Recovered [3, 8]: 101.6% | Mean Concentration [3, 8]: 0.00376 µg/mL | % Recovered [3, 9]: 96.0% | Mean Concentration [3, 9]: 0.0364 µg/mL | % Recovered [3, 10]: 97.9% | Mean Concentration [3, 10]: 0.36459 µg/mL | % Recovered [3, 11]: 104.6% | Mean Concentration [3, 11]: 0.00387 µg/mL | % Recovered [3, 12]: 98.0% | Mean Concentration [3, 12]: 0.03715 µg/mL | % Recovered [3, 13]: 100.0% | Mean Concentration [3, 13]: 0.37258 µg/mL | % Recovered [3, 14]: 99.4% | Mean Concentration [3, 14]: 0.00175 µg/mL | % Recovered [3, 15]: 98.3% | Mean Concentration [3, 15]: 0.00866 µg/mL | % Recovered [3, 16]: 98.3% | Mean Concentration [3, 16]: 0.06084 µg/mL | degradation of MB-102 ([3]; solution stored at room temperature with light for 48 hours): 1-2% | sample solution stability ([3]; stored at 4° C. for up to 48 hours): very stable | sample solution stability ([3]; stored at room temperature without light for up to 48 hours): very stable | clearance rate ([4]; 12 subjects, FIG. 7): varies among patients | clearance rate compared with iohexol ([4]; three subjects, iohexol co-dosed, FIGS. 8a-8c): parallel to that of iohexol
SMILES: Nc1nc(C(=O)N[C@H](CO)C(=O)O)c(N)nc1C(=O)N[C@H](CO)C(=O)O [MB-102, (2R,2′R)-2,2′-((3,6-diaminopyrazine-2,5-dicarbonyl)bis(azanediyl))bis(3-hydroxypropanoic acid)]

Reference: patent publication US11674965B2, “Method for preparing and analyzing fluorescent compounds in plasma” (MediBeacon, Inc., priority 2017, dated 2023)
